Results as given in ChEMBL document CHEMBL2057194, “Structure-activity relationships, ligand efficiency, and lipophilic efficiency profiles of benzophenone-type inhibitors of the multidrug transporter P-glycoprotein” (J Med Chem, 2012).

Target: ATP-dependent translocase ABCB1 (Homo sapiens, UniProt P08183)
Assay: Inhibition of P-glycoprotein-mediated daunorubicin efflux from human CCRF-CEM/VCR1000 cells after 240 secs by FACS flow cytometric analysis
Details: read-out: IC50

Sequence of ATP-dependent translocase ABCB1 (P08183 whole entry): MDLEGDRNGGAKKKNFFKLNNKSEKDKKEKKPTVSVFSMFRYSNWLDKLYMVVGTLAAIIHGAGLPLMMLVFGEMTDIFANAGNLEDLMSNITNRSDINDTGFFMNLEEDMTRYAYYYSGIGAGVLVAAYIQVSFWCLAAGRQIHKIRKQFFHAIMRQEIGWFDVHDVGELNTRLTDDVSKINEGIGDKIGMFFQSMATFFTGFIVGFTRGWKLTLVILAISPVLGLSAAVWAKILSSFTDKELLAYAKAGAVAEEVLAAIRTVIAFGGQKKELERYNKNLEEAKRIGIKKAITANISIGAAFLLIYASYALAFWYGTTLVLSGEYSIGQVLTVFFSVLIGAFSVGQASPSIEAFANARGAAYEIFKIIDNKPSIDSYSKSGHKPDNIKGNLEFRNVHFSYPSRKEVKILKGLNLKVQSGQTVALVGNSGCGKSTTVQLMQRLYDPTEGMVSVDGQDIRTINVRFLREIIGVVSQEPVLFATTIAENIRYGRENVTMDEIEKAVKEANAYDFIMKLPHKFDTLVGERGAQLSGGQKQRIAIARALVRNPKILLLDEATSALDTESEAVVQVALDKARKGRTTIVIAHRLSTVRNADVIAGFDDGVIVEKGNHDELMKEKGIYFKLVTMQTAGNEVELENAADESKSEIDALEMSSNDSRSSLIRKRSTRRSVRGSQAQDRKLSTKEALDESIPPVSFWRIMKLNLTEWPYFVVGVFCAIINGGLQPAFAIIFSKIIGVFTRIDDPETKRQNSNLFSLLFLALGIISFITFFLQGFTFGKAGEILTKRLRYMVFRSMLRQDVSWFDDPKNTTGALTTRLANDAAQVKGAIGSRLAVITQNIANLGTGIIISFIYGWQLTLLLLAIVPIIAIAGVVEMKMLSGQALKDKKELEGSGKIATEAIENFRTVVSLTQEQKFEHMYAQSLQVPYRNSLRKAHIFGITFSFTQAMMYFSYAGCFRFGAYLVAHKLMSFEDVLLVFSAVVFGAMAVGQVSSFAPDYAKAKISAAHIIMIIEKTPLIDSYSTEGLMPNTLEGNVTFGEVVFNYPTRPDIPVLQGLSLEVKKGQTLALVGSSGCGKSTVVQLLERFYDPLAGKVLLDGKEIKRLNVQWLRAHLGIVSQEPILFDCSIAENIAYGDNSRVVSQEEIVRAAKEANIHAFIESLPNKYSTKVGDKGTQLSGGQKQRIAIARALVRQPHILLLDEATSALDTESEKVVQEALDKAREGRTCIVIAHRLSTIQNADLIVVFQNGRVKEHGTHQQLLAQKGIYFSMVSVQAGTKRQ

Row | SMILES | IC50 [nM]
1 | O=C(c1ccccc1)c1ccccc1OCC(O)CN1CCOCC1 (configuration not stated) | 13400
2 | CCCNCC(O)COc1ccccc1C(=O)c1ccc(C)cc1 (configuration not stated) | 1210
3 | O=C(c1ccccc1)c1ccccc1OCC(O)CN1CCC(O)(c2ccccc2)CC1 (configuration not stated) | 310
4 | O=C(c1ccccc1)c1ccc(OCC(O)CN2CCCCC2)cc1 (configuration not stated) | 2180
5 | O=C(c1ccccc1)c1cccc(OCC(O)CN2CCCCC2)c1 (configuration not stated) | 3550
6 | CC(=O)c1cc(C)ccc1OCC(O)CN1CCN(CC(O)COc2ccccc2C(=O)c2ccccc2)CC1 (configuration not stated) | 9480
7 | O=C(c1ccccc1)c1ccc(OCC(O)CN2CCOCC2)cc1 (configuration not stated) | 5320

The remaining lines, values ahead:

Row | IC50 [nM] | SMILES
8 | 380 | Cc1ccc(NC(=S)N2CCN(CC(O)COc3ccccc3C(=O)c3ccccc3)CC2)cc1 (configuration not stated)
9 | 480 | Cc1ccc(NC(=O)N2CCN(CC(O)COc3ccccc3C(=O)c3ccccc3)CC2)cc1 (configuration not stated)
10 | 50 | O=C(c1ccccc1)c1ccccc1OCC(O)CN1CCN(CC(O)COc2ccccc2C(=O)c2ccccc2)CC1 (configuration not stated)
11 | 170 | Cc1cccc(N2CCN(CC(O)COc3cccc(C(=O)c4ccccc4)c3)CC2)c1C (configuration not stated)
12 | 580 | O=C(c1ccccc1)c1cccc(OCC(O)CN2CCN(c3ccc(F)cc3)CC2)c1 (configuration not stated)
13 | 650 | Cc1cccc(N2CCN(CC(O)COc3ccc(C(=O)c4ccccc4)cc3)CC2)c1C (configuration not stated)
14 | 970 | O=C(c1ccccc1)c1ccc(OCC(O)CN2CCN(c3ccc(F)cc3)CC2)cc1 (configuration not stated)
15 | 1200 | O=C(c1ccccc1)c1ccccc1OCC(O)CN1CCCCC1 (configuration not stated)
16 | 200 | Cc1ccccc1N1CCN(CC(O)COc2cccc(C(=O)c3ccccc3)c2)CC1 (configuration not stated)
17 | 150 | O=C(c1ccccc1)c1ccccc1OCC(O)CN1CCN(c2ccc(F)cc2)CC1 (configuration not stated)
18 | 500 | Cc1ccccc1N1CCN(CC(O)COc2ccc(C(=O)c3ccccc3)cc2)CC1 (configuration not stated)

Same assay, conditions: read-out: pIC50 (converted)

Row | SMILES | IC50 [nM]
19 | O=C(CCc1ccccc1)c1ccccc1OCC(O)CN1CCC(O)(c2ccccc2)CC1 (configuration not stated) | 57.5
20 | COc1cc2c(cc1OC)CN(CCc1ccc(NC(=O)c3cc(OC)c(OC)cc3NC(=O)c3cnc4ccccc4c3)cc1)CC2 | 33.1
21 | O=C(CCc1ccccc1)c1ccccc1OCC(O)CN1CCCCC1 (configuration not stated) | 603
22 | CCOC/C=C/c1ccc(-c2nc(-c3ccc(NC(C)C)cc3)c(-c3ccc(NC(C)C)cc3)[nH]2)cc1 | 31.6
